Source: patent US12122811B2, “BDNF mimetic peptide amphiphiles” (Northwestern University, priority 2018, dated 2024)
Positions of bridges follow the written chain, without caps; N, C: chain ends. Non-standard residues stand in square brackets, D forms with d. Residues, ends and D or L forms follow the SMILES beside them. Chains are numbered I, II in the order given. *: point of attachment. PEG6 = NCCOCCOCCOCCOCCOCCOCCC(=O)O; Palmitoyl = CCCCCCCCCCCCCCCC(=O)*

What was measured:
[1] = test system: cortical neurons; assay: Infiltration and maturation of cortical neurons on 3D PA gel scaffolds; assay type: cell-based, mouse; conditions: neurons on gels, one week
Description: Gels were made using annealed PAs prepared with methods described herein 1. BDNF native protein or BDNF peptide were incorporated by mixing at 10 nM or 0.5 uM respectively, with E2 Filler PA gel at 1 wt % while it was in its liquid state. Silicon isolators with adhesive (Invitrogen) were placed on PDL coated glass coverslips. 70 μL of PA liquid was pipetted into the circular silicon well and a Transwell insert was placed flush with the top of the well of the silicon insert. This step ensured a flat, even thickness for all gels. Gelling solution comprised of 125 mM NaCl, 3 mM KCl, and 25 mM CaCl2 was pipetted into the Transwell insert and allowed to slowly soak down into the material from the top. The insert prevented the gel from swelling more than the thickness of the silicon isolator. All gels were incubated at 37° C. for 5 min before removing the Transwell insert.
Infiltration Study. Gels were prepared as described in 2.1.2. Gels were then rinsed with media one time before cells were seeded on top at a density of approximately 42,000 cells/well. Cells were cultured for one week in vitro. Half of the gels were analyzed by patch clamp analysis (see section 3.4.9. Other gels were fixed with 4% PFA to perform infiltration studies. Cell were stained for MAP2, TUJ-1 and DAPI using immunocytochemistry methods described previously. Confocal microscopy was used to make z-stack reconstructions of each gel. The MultiMeasure function in the ROI manager of ImageJ was used to measure the depth of pixels for each channel which was then plotted as intensity vs depth in the gel. The average intensity of MAP2 was measured by averaging the mean intensities obtained from maximum intensity projections of z-stacks images of gels.

[2] = test system: mouse model of spinal cord injury; assay: Mouse model of spinal cord injury, Basso Mouse Scale hind limb scoring; assay type: in vivo; conditions: for hindlimb function: over 12 weeks, vs E2 PA or saline
From the text: The spinal cord injury procedures used follow a standardized protocol to ensure a reproducible injury. Mice were anesthetized and their back is opened to reveal the vertebral column. The vertebral bone at T11 was surgically removed to reveal the spinal cord tissue. The mice were then transferred the impactor machine which is used to inflict a compression injury on the exposed spinal cord. The spinal cord was held in place using stereotactic clamps. The instrument inflicts a force of 70-80 kDynes and dwells in the place of the impact for 60 seconds to simulate a crush injury accident. This injury is quite severe. After each impact was performed, the instrument supplies a graph corresponding to the real force and trajectory of the impactor. This graph is used to compare and ensure that all animals receive an injury of the same nature. After the injury is inflicted, the animals were closed and allowed to rest for 24 hours.
The next day, the animals were re-opened and prepared for the “treatment” surgery. Before beginning the procedure, all animals underwent a behavioral assessment and mice with hind limb movement were discarded from the study. When the animal is re-opened, there was typically a dark, bruised area apparent where the crush injury took place the previous day. This is where the treatment was injected. A Hamilton syringe attached to a glass-pulled needle with a diameter of ˜300 μm was used to puncture the bruised dermis of the tissue and the treatment was injected into the underlying tissue cavity. Treatment types include; saline, and the C16V2A2E2 (E2) non-bioactive PA gel as negative controls, as well as the BDNF PA co-assembled at 20 mol % with the E2 non-bioactive PA gel.
After injection, the animals were closed and returned to cages to recover. Over the next 12 weeks, blinded hind limb behavioral scoring was performed to assess any functional changes (FIG. 21). A standardized “Basso Mouse Scale” was used (Basso et al. J Neurotrauma. 2006 May; 23(5):635-59.; herein incorporated by reference in its entirety). Two blinded researchers were either side of a runway where the mouse was guided to move in a straight line. As the mouse walks, each researcher grades the limb movement. Any discrepancies in evaluation were re-evaluated by a third researcher. The score for the two limbs was averaged and marked as the score for that animal.

[3] = Dynamic light scattering (DLS); assay type: physicochemical; conditions: BDNF PA at 100 mol %
Description: 2.2.2. Dynamic Light Scattering (DLS). Measurements were performed on a Malvern Zetasizer Nano ZSP light scattering spectrometer. Samples were prepared as previously described. During the sample measurement, the temperature was kept at 25° C. The sample was equilibrated for 30 seconds before each measurement was taken. The duration of each measurement was 10 seconds and the measurement angle was 173° backscatter. The attenuator was determined by the instrument automatically, as was the number of accumulations for each run. Each measurement run was repeated 3 times.

CCCCCCCCCCCCCCCC(=O)N[C@H](C(=O)N[C@H](C(=O)N[C@@H](C)C(=O)N[C@@H](C)C(=O)N[C@@H](CCC(=O)O)C(=O)N[C@@H](CCC(=O)O)C(=O)N[C@@H](CCC(=O)O)C(=O)N[C@@H](CCC(=O)O)C(=O)NCCOCCOCCOCCOCCOCCOCCC(=O)NCCCC[C@@H]1NC(=O)[C@H]2CCCN2C(=O)[C@H](CCCNC(=N)N)NC(=O)[C@H](CCCCN)NC(=O)[C@H](CCCCN)NC1=O)C(C)C)C(C)C [BDNF PA, RKK(aK)(dP)-(PEG6 Spacer)-EEEEAAVV-C16 (SEQ ID NO: 5)] (I: Palmitoyl-VVAAEEEE[PEG6] / II: cyclo(KKKR[dP]); amide I:C-II:1)
distance that neurites infiltrated from the top of the scaffold [1]: 179.7±6.0 μm | infiltration distance relative to all the other conditions [1]: nearly four-and-a-half times higher | normalized average of MAP2 intensity [1]: 0.64±0.15 | final average limb behavioral score (Basso Mouse Scale) ([2]; 12 weeks after injury, BDNF PA co-assembled at 20 mol % with E2 PA gel, injected 24 h after injury): 3.7 | rate of hindlimb improvement ([2]; first three weeks following injury): increased rate of hindlimb improvement | hindlimb function [2]: increased functional hind limb recovery | hindlimb function ([2]; listed as BDNF mimetic PA): significant improvement in hindlimb function | micelle diameter (DLS) [3]: ~12 nm
